Assay [1] concerns YAP/TAZ. The assay can be described thus: Screening: YAP/TAZ activity reporter (8xGTIIC plasmid) assay in NUGC3 cells (luminescence % of DMSO). The format is cell-based, human. Particulars: NUGC3 cells, luminescence relative to DMSO; for 8×GTIIC: concentration not given. Here is the method:
(§1) Human gastric cancer cell line NUGC3 was cultured in a DMEM medium (high glucose with L-glutamine and phenol red, produced by FUJIFILM Wako Pure Chemical Corporation) containing 10% fetal bovine serum (produced by Thermo Fisher Scientific Inc.) and penicillin-streptomycin (produced by FUJIFILM Wako Pure Chemical Corporation) (this medium is simply referred to below as “DMEM+10% FBS+1×P/S”). Then, the NUGC3 cells were seeded in a 60-mm culture dish (produced by BioLite) so that the cells were 80% confluent after 24 hours. Subsequently, 5 μg of a reporter plasmid and 15 μL of a lipofection reagent (transIT-LT1, produced by Mirus Bio LLC) were mixed in 500 μL of Opti-MEM medium (produced by Thermo Fisher Scientific, Inc.) to form a complex, which was added to the medium in which the NUGC3 cells were cultured in the 60-mm culture dish. For use as the reporter plasmid, 5 μg of a polyglutamine luciferase reporter was introduced (in the polyglutamine luciferase reporter, a Renilla luciferase expressed in the IRES was located as an internal standard downstream of the sequence of a firefly luciferase sequence to which polyglutamine was added). Alternatively, a YAP/TAZ activity reporter was used by simultaneously introducing 3 μg of 8×GTIIC plasmid and 2 μg of a Renilla luciferase reporter as an internal standard. After another 24 hours, the cells were exfoliated with a 0.05 w/v % trypsin-0.53 mmol/l EDTA-4Na solution (produced by FUJIFILM Wako Pure Chemical Corporation), and then seeded in a 96-well plate (produced by BioLite) so that the cells were 80% confluent after 24 hours. Twenty-four hours after seeding in the 96-well plate, the medium in each well was replaced with 100 μL of a medium (DMEM+10% FBS+an antibiotic) containing 10 μM or 5 μM of a compound for evaluation. After another 24 hours, the medium containing the compound was removed, and the 96-well plate was transferred on ice. Each well was washed with 100 μL of phosphate buffer (PBS, produced by FUJIFILM Wako Pure Chemical Corporation). Thereafter, 20 μL of Passive Lysis Buffer (1×) contained in a Dual-Luciferase Reporter Assay System (produced by Promega Corporation) was added. The plate was then gently shaken for 15 minutes at room temperature to lyse the cells. After confirming that the cells were lysed, 10 μL of the lysate was transferred from each well to each corresponding well of a white 96-well plate (produced by Greiner Bio-one). To each well of the white 96-well plate was added 100 μL of a mixture of a Luciferase Assay Buffer II and Luciferase Assay Substrate contained in the Dual-Luciferase Reporter Assay System (produced by Promega Corporation), whereby the luminescence of the firefly luciferase was induced, and the luminescence intensity was detected with a microluminometer (produced by Berthold Japan K.K.). Subsequently, 100 μL of a mixture of Stop & Glo Buffer and Stop & Glo Substrate contained in the Dual-Luciferase Reporter Assay System (produced by Promega Corporation) was added, whereby the luminescence of firefly luciferase was quenched while the luminescence of Renilla luciferase was induced, and the luminescence intensity was detected with a microluminometer (produced by Berthold Japan K.K.) in a manner similar to the above. The ratio of the luminescence intensity of the firefly luciferase and the luminescence intensity of the Renilla luciferase was calculated, and the luminescence intensity (%) of the wells containing each compound was calculated with the luminescence intensity of the well containing DMSO (dimethyl sulfoxide, used as a solvent for the compound liquids) taken as 100%. […] Unless otherwise specified, the measured values in the table represent the results obtained by evaluation with the addition of 10 μM of each compound for evaluation.

For assay [2], the system named is polyglutamine luciferase reporter. The assay can be described thus: Screening: polyglutamine luciferase reporter assay in NUGC3 cells (luminescence % of DMSO). In kind it is cell-based, human. Particulars: NUGC3 cells, luminescence relative to DMSO; for Polyglutamine: concentration not given. On the procedure: as §1
Setting [3] is: YAP/TAZ activity reporter (8×GTIIC).
Setting [4] is: polyglutamine luciferase reporter.

Take `CC(=O)c1cccc(C2CC(c3ccc(C)cc3)=NC2S(=O)(=O)c2ccc(C)cc2)c1` (centres unmarked) [PVZF0095]: in assay [1], the “8×GTIIC” value stood at 66.76%. The Polyglutamine in assay [2] is on record as 47.01%.
The corresponding values for `Cc1ccc(C2=NC(S(=O)(=O)c3ccccc3)C(c3ccc(C)cc3)C2)cc1` (centres unmarked) [PVZF0096] are 103.6% and 73.68%.
Turning to `Cc1ccccc1C1=CC(C2=CC3CCCCC3C=C2)=CC1` (centres unmarked) [PVZF0101], the activity at 5 µM was 16.1% in assay [1] (Homo sapiens, NUGC-3, 5 μM, read-out: 8×GTIIC) and 13% in assay [2] (Homo sapiens, NUGC-3, 5 μM). Moreover, the activity at 10 µM in assay [1] (Homo sapiens, NUGC-3, 10 μM, read-out: 8×GTIIC) was found to be 12.5%; in assay [2] (Homo sapiens, NUGC-3, 10 μM) it was 10%.
With `CC(C)c1cc(C(C)C)c(S(=O)(=O)CC2CCCC2)c(C(C)C)c1` [PVZF2002], in assay [1] (setting [3]), the “8×GTIIC” value was 38.2%. The molecule also came in with a Polyglutamine in assay [2] (setting [4]) of 36.92%.
The corresponding values for `CCCCCCS(=O)(=O)c1c(C(C)C)cc(C(C)C)cc1C(C)C` [PVZF2003] are 75.26% and 41.74%.
The corresponding values for `CC(C)c1cc(C(C)C)c(S(=O)(=O)CCc2ccccc2)c(C(C)C)c1` [PVZF2006] are 58.43% and 41.3%.
The corresponding values for `CC(C)c1cc(C(C)C)c(S(=O)(=O)NCC2CCCNC2)c(C(C)C)c1` (centres unmarked) [PVZF2008] are 70.12% and 64.94%.
Turning to `O=S(=O)(CC1CCCC1)c1ccc2ccccc2c1` [PVZF2010], the “8×GTIIC” value in assay [1] (setting [3]) was 24.49%. In assay [2] (setting [4]), this molecule gave a Polyglutamine of 33.13%.
With `CCCCCCS(=O)(=O)c1ccc2ccccc2c1` [PVZF2011], in assay [1] (setting [3]), the “8×GTIIC” value was determined as 36.2%. In assay [2] (setting [4]), the Polyglutamine amounted to 28.85%.
On the same counts, the results for `O=S(=O)(CC1CCCCC1)c1ccc2ccccc2c1` [PVZF2012] are 34.08% and 33.76%.
The corresponding values for `O=S(=O)(CCc1ccccc1)c1ccc2ccccc2c1` [PVZF2014] are 59.08% and 40.32%.
On the same counts, the results for `O=S(=O)(CCC1CCCCC1)c1ccc2ccccc2c1` [PVZF2015] are 51.25% and 51.29%.
On to `O=S(=O)(CCCC1CCCCC1)c1ccc2ccccc2c1` [PVZF2017], for which the “8×GTIIC” value in assay [1] (setting [3]) was determined as 58.91%. The Polyglutamine in assay [2] (setting [4]) worked out at 66.66%.
On the same counts, the results for `CC1(C)CC(CS(=O)(=O)c2ccc3ccccc3c2)CC(C)(C)C1` [PVZF2018] are 73.29% and 61.19%.
The corresponding values for `CC(C)(C)c1ccc(S(=O)(=O)CC2CCCC2)cc1` [PVZF2019] are 36.82% and 31.45%.
On the same counts, the results for `CCCCCCS(=O)(=O)c1ccc(C(C)(C)C)cc1` [PVZF2020] are 45.04% and 36.76%.
For the molecule `CC(C)(C)c1ccc(S(=O)(=O)CC2CCCCC2)cc1` [PVZF2021], the “8×GTIIC” value in assay [1] (setting [3]) stood at 44.55%. The molecule also came in with a Polyglutamine in assay [2] (setting [4]) of 32.95%.
Regarding `CC(C)(C)c1ccc(S(=O)(=O)CCc2ccccc2)cc1` [PVZF2023], the “8×GTIIC” value in assay [1] (setting [3]) was 66.96%. In assay [2] (setting [4]), this molecule had a Polyglutamine of 58.32%.
On the same counts, the results for `CC(C)(C)c1ccc(S(=O)(=O)CCC2CCCCC2)cc1` [PVZF2024] are 55.45% and 63.4%.
The corresponding values for `CC(C)(C)c1ccc(S(=O)(=O)CCCC2CCCCC2)cc1` [PVZF2026] are 34.4% and 31.89%.
The corresponding values for `O=S(=O)(CC1CCCC1)c1ccc(-c2ccccc2)cc1` [PVZF2028] are 40.24% and 42.32%.
For the molecule `CCCCCCS(=O)(=O)c1ccc(-c2ccccc2)cc1` [PVZF2029], in assay [1] (setting [3]), the “8×GTIIC” value is given as 49.28%. For the same molecule, in assay [2] (setting [4]), the Polyglutamine amounted to 49.5%.
For the molecule `O=S(=O)(CC1CCCCC1)c1ccc(-c2ccccc2)cc1` [PVZF2030], in assay [1] (setting [3]), the “8×GTIIC” value is given as 49.29%. For the same molecule, the Polyglutamine in assay [2] (setting [4]) stood at 50.36%.
Turning to `O=S(=O)(CCc1ccccc1)c1ccc(-c2ccccc2)cc1` [PVZF2032], the “8×GTIIC” value in assay [1] (setting [3]) worked out at 76.99%. This molecule showed a Polyglutamine in assay [2] (setting [4]) of 73.08%.

(Values after patent US20230210834A1, “RNA METHYLTRANSFERASE INHIBITOR, SCREENING METHOD THEREFOR, ANTI-CANCER AGENT EFFICACY ASSESSMENT MARKER, AND KIT FOR EFFECTIVELY PREDICTING FTSJ1 INHIBITOR” (National University Corporation Okayama University, priority 2019, published 2023).)
